Experimental data as given in PMC6816013 (Journal of Medicinal Chemistry, 2019).
Where a name gives a salt, the structure may show the parent alone. Read-outs that look alike come from different tables or passages of the source.

Legend:
[1] = molecular target: HSA (Homo sapiens, UniProt P02768); experiment: HSA binding (plasma protein binding); format: in vitro ADME
HSA, sequence (P02768 25-609): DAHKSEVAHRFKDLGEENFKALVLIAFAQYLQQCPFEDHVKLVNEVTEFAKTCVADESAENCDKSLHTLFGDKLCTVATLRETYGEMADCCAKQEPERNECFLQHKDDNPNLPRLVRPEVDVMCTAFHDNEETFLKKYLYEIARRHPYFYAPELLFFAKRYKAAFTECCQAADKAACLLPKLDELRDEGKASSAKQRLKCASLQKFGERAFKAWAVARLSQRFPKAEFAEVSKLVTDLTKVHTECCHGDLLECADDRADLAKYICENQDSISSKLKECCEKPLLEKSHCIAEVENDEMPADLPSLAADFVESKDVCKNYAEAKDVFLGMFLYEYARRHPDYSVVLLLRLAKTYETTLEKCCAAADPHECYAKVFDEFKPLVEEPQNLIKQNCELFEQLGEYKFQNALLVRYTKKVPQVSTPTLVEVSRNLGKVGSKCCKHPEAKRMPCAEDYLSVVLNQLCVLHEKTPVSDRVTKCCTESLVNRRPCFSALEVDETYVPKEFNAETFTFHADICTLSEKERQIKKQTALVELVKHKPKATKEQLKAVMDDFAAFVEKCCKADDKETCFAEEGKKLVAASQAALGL

SMILES | AMP (PAMPA) | HSA binding [1] [%] | AMP (Tables 2 and 5) [cm/s]
CN1CCN(c2ccc(Nc3nccc(-c4sc(N)nc4-c4ccc(F)cc4)n3)cc2)CC1 [Compound 11, 4-[2-Amino-4-(4-fluorophenyl)-1,3-thiazol-5-yl]-N-[4-(4-methylpiperazin-1-yl)phenyl]pyrimidin-2-amine Trifluoroacetate] | 2.6 |  | 
COCCNc1nccc(-c2sc(C3CCNCC3)nc2-c2ccc(F)cc2)n1 [Compound 43, 4-[4-(4-Fluorophenyl)-2-(piperidin-4-yl)-1,3-thiazol-5-yl]-N-(2-methoxyethyl)pyrimidin-2-amine] |  | 80 | 
Fc1ccc(-c2nc(C3CCNCC3)sc2-c2ccnc(Nc3cnccn3)n2)cc1 [Compound 26, 4-(4-(4-Fluorophenyl)-2-(piperidin-4-yl)thiazol-5-yl)-N-(pyrazin-2-yl)pyrimidin-2-amine] |  | 92 | 1.6e-06
O=C(Nc1nc(-c2ccc(F)cc2)c(-c2ccnc(Nc3ccc(N4CCNCC4)cc3)n2)s1)C1CC1 [Compound 15, N-[4-(4-Fluorophenyl)-5-{2-[4-(piperazin-1-yl)anilino]pyrimidin-4-yl}-1,3-thiazol-2-yl]cyclopropanecarboxamide Trifluoroacetate] | 0.2 |  | 
CCOc1nccc(Nc2nccc(-c3sc(C4CCNCC4)nc3-c3ccc(F)cc3)n2)n1 [Compound 30, N-(2-Ethoxypyrimidin-4-yl)-4-[4-(4-fluorophenyl)-2-(piperidin-4-yl)-1,3-thiazol-5-yl]pyrimidin-2-amine Trifluoroacetate] | 1.7 |  | 
Cc1nccc(Nc2nccc(-c3sc(C4CCNCC4)nc3-c3ccc(F)cc3)n2)n1 [Compound 29, 4-[4-(4-Fluorophenyl)-2-(piperidin-4-yl)-1,3-thiazol-5-yl]-N-(2-methylpyrimidin-4-yl)pyrimidin-2-amine] |  | 91 | 1.8e-06
c1cc(Nc2nccc(-c3sc(C4CCNCC4)nc3C3CC3)n2)ncn1 [Compound 58, 4-(4-Cyclopropyl-2-(piperidin-4-yl)thiazol-5-yl)-N-(pyrimidin-4-yl)pyrimidin-2-amine Hydrochloride] | 1.8 |  | 
Cc1cc(Nc2nccc(-c3sc(C4CCNCC4)nc3-c3ccc(F)cc3)n2)on1 [Compound 22, N-(4-(4-(4-Fluorophenyl)-2-(piperidin-4-yl)thiazol-5-yl)pyrimidin-2-yl)-3-methylisoxazol-5-amine] |  | 94 | 1.2e-06
Fc1ccc(-c2nc(C3CCNCC3)sc2-c2ccnc(Nc3ccccn3)n2)cc1 [Compound 25, 4-(4-(4-Fluorophenyl)-2-(piperidin-4-yl)thiazol-5-yl)-N-(pyridin-2-yl)pyrimidin-2-amine] |  | 94 | 3.3e-06
Fc1ccc(-c2nc(C3CCNCC3)sc2-c2ccnc(N3CCC(CN4CCOCC4)CC3)n2)cc1 [Compound 57, 4-((1-(4-(4-(4-Fluorophenyl)-2-(piperidin-4-yl)thiazol-5-yl)pyrimidin-2-yl)piperidin-4-yl)methyl)morpholine] |  | 93 | 
Fc1ccc(-c2nc(N3CCOCC3)sc2-c2ccnc(Nc3ccc(N4CCNCC4)cc3)n2)cc1 [Compound 9, 4-[4-(4-Fluorophenyl)-2-(morpholin-4-yl)-1,3-thiazol-5-yl]-N-[4-(piperazin-1-yl)phenyl]pyrimidin-2-amine Trifluoroacetate] | 2.8 |  | 
CN1CCC(Nc2nccc(-c3sc(C4CCNCC4)nc3-c3ccc(F)cc3)n2)C1 (centres unmarked) [Compound 52, 4-[4-(4-Fluorophenyl)-2-(piperidin-4-yl)-1,3-thiazol-5-yl]-N-(1-methylpyrrolidin-3-yl)pyrimidin-2-amine] |  | 89 | 
O=S(=O)(Nc1nc(-c2ccc(F)cc2)c(-c2ccnc(Nc3ccc(N4CCNCC4)cc3)n2)s1)C1CCNCC1 [Compound 18, N-[4-(4-Fluorophenyl)-5-{2-[4-(piperazin-1-yl)anilino]pyrimidin-4-yl}-1,3-thiazol-2-yl]piperidine-4-sulfonamide Trifluoroacetate] | 0.3 |  | 
CCc1cc(Nc2nccc(-c3sc(C4CCNCC4)nc3-c3ccc(F)cc3)n2)nc(C)c1F [Compound 36, N-(4-Ethyl-5-fluoro-6-methylpyridin-2-yl)-4-(4-(4-fluorophenyl)-2-(piperidin-4-yl)thiazol-5-yl)pyrimidin-2-amine] |  | 97 | 
Fc1ccc(-c2nc(C3CCNCC3)sc2-c2ccnc(N3CCC(N4CCC4)CC3)n2)cc1 [Compound 55, 2-[4-(Azetidin-1-yl)piperidin-1-yl]-4-[4-(4-fluorophenyl)-2-(piperidin-4-yl)-1,3-thiazol-5-yl]pyrimidine] |  | 90 | 
OCCNc1nccc(-c2sc(C3CCNCC3)nc2-c2ccc(F)cc2)n1 [Compound 42, 2-({4-[4-(4-Fluorophenyl)-2-(piperidin-4-yl)-1,3-thiazol-5-yl]pyrimidin-2-yl}amino)ethanol] |  | 79 | 
Fc1ccc(-c2nc(C3CCNCC3)sc2-c2ccnc(N3CCC(N4CCOCC4)CC3)n2)cc1 [Compound 56, 4-(1-(4-(4-(4-Fluorophenyl)-2-(piperidin-4-yl)thiazol-5-yl)pyrimidin-2-yl)piperidin-4-yl)morpholine] |  | 90 | 

SMILES | AMP (PAMPA) | HSA binding [1] [%] | AMP (Tables 2 and 5) [cm/s]
Fc1ccc(-c2nc(C3CCNCC3)sc2-c2ccnc(NCCN3CCCC3)n2)cc1 [Compound 47, 4-[4-(4-Fluorophenyl)-2-(piperidin-4-yl)-1,3-thiazol-5-yl]-N-[2-(pyrrolidin-1-yl)ethyl]pyrimidin-2-amine] |  | 86 | 
Fc1ccc(-c2nc(C3CCNCC3)sc2-c2ccnc(NCCN3CCOCC3)n2)cc1 [Compound 49, 4-(4-(4-Fluorophenyl)-2-(piperidin-4-yl)thiazol-5-yl)-N-(2-morpholinoethyl)pyrimidin-2-amine] |  | 83 | 
COc1cc(Nc2nccc(-c3sc(C4CCNCC4)nc3-c3ccc(F)cc3)n2)cc(C)n1 [Compound 34, 4-[4-(4-Fluorophenyl)-2-(piperidin-4-yl)-1,3-thiazol-5-yl]-N-(2-methoxy-6-methylpyridin-4-yl)pyrimidin-2-amine Trifluoroacetate] | 1.9 |  | 
Oc1cc(Nc2nccc(-c3sc(C4CCNCC4)nc3-c3ccc(F)cc3)n2)ccn1 [Compound 33, 4-({4-[4-(4-Fluorophenyl)-2-(piperidin-4-yl)-1,3-thiazol-5-yl]pyrimidin-2-yl}amino)pyridin-2-ol Trifluoroacetate] | 0.2 |  | 
Nc1nc(-c2ccc(F)cc2)c(-c2ccnc(Nc3ccc(N4CCNCC4)cc3)n2)s1 [Compound 12, 4-[2-Amino-4-(4-fluorophenyl)-1,3-thiazol-5-yl]-N-[4-(piperazin-1-yl)phenyl]pyrimidin-2-amine] |  | 98 | 
CN1CCN(CCNc2nccc(-c3sc(C4CCNCC4)nc3-c3ccc(F)cc3)n2)CC1 [Compound 48, 4-[4-(4-Fluorophenyl)-2-(piperidin-4-yl)-1,3-thiazol-5-yl]-N-[2-(4-methylpiperazin-1-yl)ethyl]pyrimidin-2-amine] |  | 90 | 
OC1CCN(c2nccc(-c3sc(C4CCNCC4)nc3-c3ccc(F)cc3)n2)C1 (centres unmarked) [Compound 54, 1-{4-[4-(4-Fluorophenyl)-2-(piperidin-4-yl)-1,3-thiazol-5-yl]pyrimidin-2-yl}pyrrolidin-3-ol] |  | 85 | 
CN(C)C(CNc1nccc(-c2sc(C3CCNCC3)nc2-c2ccc(F)cc2)n1)C1CC1 (centres unmarked) [Compound 46, 1-Cyclopropyl-N′-{4-[4-(4-fluorophenyl)-2-(piperidin-4-yl)-1,3-thiazol-5-yl]pyrimidin-2-yl}-N,N-dimethylethane-1,2-diamine] |  | 91 | 
Fc1ccc(-c2nc(C3CCNCC3)sc2-c2ccnc(NCC3CCCO3)n2)cc1 (centres unmarked) [Compound 44, 4-[4-(4-Fluorophenyl)-2-(piperidin-4-yl)-1,3-thiazol-5-yl]-N-(tetrahydrofuran-2-ylmethyl)pyrimidin-2-amine] |  | 86 | 
CN1CCC(C(=O)Nc2nc(-c3ccc(F)cc3)c(-c3ccnc(Nc4ccc(N5CCNCC5)cc4)n3)s2)CC1 [Compound 16, N-[4-(4-Fluorophenyl)-5-{2-[4-(piperazin-1-yl)anilino]pyrimidin-4-yl}-1,3-thiazol-2-yl]-1-methylpiperidine-4-carboxamide Trifluoroacetate] | 0.1 |  | 
CN(C)CCNc1nccc(-c2sc(C3CCNCC3)nc2-c2ccc(F)cc2)n1 [Compound 45, N′-{4-[4-(4-Fluorophenyl)-2-(piperidin-4-yl)-1,3-thiazol-5-yl]pyrimidin-2-yl}-N,N-dimethylethane-1,2-diamine] |  | 83 | 
Cc1nc(Nc2nccc(-c3sc(C4CCNCC4)nc3-c3ccc(F)cc3)n2)cc(C2CCC2)c1F [Compound 38, N-(4-Cyclobutyl-5-fluoro-6-methylpyridin-2-yl)-4-(4-(4-fluorophenyl)-2-(piperidin-4-yl)thiazol-5-yl)pyrimidin-2-amine] |  | 98 | 
Fc1ccc(-c2nc(N3CCCC3)sc2-c2ccnc(Nc3ccc(N4CCNCC4)cc3)n2)cc1 [Compound 10, 4-[4-(4-Fluorophenyl)-2-(pyrrolidin-1-yl)-1,3-thiazol-5-yl]-N-[4-(piperazin-1-yl)phenyl]pyrimidin-2-amine Trifluoroacetate] | 2.7 |  | 
CCCS(=O)(=O)Nc1nc(-c2ccc(F)cc2)c(-c2ccnc(Nc3ccc(N4CCNCC4)cc3)n2)s1 [Compound 17, N-[4-(4-Fluorophenyl)-5-{2-[4-(piperazin-1-yl)anilino]pyrimidin-4-yl}-1,3-thiazol-2-yl]propane-1-sulfonamide Trifluoroacetate] | 0.3 |  | 
Fc1ccc(-c2nc(C3CCNCC3)sc2-c2ccnc(N3CCCC3)n2)cc1 [Compound 53, 4-[4-(4-Fluorophenyl)-2-(piperidin-4-yl)-1,3-thiazol-5-yl]-2-(pyrrolidin-1-yl)pyrimidine] |  | 93 | 
CCOC(=O)N1CCC(c2nc(-c3ccc(F)cc3)c(-c3ccnc(Nc4ccc(N5CCN(C)CC5)cc4)n3)s2)CC1 [Compound 8] |  | 98 | 
O[C@H]1CC[C@H](Nc2nccc(-c3sc(C4CCNCC4)nc3-c3ccc(F)cc3)n2)CC1 [Compound 51, trans-4-({4-[4-(4-Fluorophenyl)-2-(piperidin-4-yl)-1,3-thiazol-5-yl]pyrimidin-2-yl}amino)cyclohexanol] |  | 85 | 
